Experimental findings from ChEMBL document CHEMBL1201862, “PubChem BioAssay data set” (2004) are described below.

One test addresses Paired box protein Pax-8 (Homo sapiens, UniProt Q06710). Briefly: PAX8 transcriptional activity inhibition in RMG-I – RMG-I cells, luciferase, cherry-pick, dose response (AID 687027).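 Note: luciferase reporter driven by Pax8 target thyroperoxidase promoter measured by SteadyGlo luminescence.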 It is filed as functional, cell-based.
The target of test [1] is T1, Replicative DNA helicase DnaB (Mycobacterium tuberculosis, UniProt P9WMR3).
T1 sequence (P9WMR3 whole entry): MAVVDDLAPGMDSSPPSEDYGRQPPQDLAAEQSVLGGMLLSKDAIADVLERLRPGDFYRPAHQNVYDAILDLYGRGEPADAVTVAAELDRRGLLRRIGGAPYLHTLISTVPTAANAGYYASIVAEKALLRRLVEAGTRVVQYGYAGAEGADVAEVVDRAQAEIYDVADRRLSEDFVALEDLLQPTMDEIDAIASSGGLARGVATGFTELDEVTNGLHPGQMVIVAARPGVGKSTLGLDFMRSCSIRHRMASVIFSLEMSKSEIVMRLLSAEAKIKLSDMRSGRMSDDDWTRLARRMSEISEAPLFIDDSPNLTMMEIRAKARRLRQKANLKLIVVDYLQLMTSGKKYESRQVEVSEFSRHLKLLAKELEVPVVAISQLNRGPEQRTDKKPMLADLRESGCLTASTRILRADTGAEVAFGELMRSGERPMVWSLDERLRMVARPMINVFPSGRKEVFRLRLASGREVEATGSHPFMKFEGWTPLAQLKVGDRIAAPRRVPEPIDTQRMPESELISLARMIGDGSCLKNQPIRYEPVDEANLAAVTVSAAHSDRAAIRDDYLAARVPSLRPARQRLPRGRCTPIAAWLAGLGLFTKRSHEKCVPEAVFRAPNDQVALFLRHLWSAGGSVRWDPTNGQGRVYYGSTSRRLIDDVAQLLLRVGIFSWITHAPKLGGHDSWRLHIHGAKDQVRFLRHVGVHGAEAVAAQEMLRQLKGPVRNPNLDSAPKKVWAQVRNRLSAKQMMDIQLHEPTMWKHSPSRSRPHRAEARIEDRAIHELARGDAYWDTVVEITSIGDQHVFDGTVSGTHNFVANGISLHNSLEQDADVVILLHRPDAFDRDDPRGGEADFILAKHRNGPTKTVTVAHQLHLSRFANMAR
Briefly: DnaB intein splicing inhibitors, dose response, biochemical, cell-free fluorescence (AID 449749). Type of test: functional.

A short description of test [2]: general cell-killing toxicity readout – plate reader, dry powder samples, cytotoxicity control for PAX8 inhibitor project, dose response (AID 743021). It is filed as functional, cell-based.
Test [3] is described as follows: Intein inhibitors as potential Tuberculosis drugs, a cytotoxicity screen. [Related pubchem assays (depositor defined):AID2221, AID2223, AID434968, AID435010, AID449749, AID449750, AID489010]. Type of test: functional.
The target of a further test is T2, Protein RecA (Mycobacterium tuberculosis, UniProt P9WHJ3).
T2 sequence (P9WHJ3 whole entry): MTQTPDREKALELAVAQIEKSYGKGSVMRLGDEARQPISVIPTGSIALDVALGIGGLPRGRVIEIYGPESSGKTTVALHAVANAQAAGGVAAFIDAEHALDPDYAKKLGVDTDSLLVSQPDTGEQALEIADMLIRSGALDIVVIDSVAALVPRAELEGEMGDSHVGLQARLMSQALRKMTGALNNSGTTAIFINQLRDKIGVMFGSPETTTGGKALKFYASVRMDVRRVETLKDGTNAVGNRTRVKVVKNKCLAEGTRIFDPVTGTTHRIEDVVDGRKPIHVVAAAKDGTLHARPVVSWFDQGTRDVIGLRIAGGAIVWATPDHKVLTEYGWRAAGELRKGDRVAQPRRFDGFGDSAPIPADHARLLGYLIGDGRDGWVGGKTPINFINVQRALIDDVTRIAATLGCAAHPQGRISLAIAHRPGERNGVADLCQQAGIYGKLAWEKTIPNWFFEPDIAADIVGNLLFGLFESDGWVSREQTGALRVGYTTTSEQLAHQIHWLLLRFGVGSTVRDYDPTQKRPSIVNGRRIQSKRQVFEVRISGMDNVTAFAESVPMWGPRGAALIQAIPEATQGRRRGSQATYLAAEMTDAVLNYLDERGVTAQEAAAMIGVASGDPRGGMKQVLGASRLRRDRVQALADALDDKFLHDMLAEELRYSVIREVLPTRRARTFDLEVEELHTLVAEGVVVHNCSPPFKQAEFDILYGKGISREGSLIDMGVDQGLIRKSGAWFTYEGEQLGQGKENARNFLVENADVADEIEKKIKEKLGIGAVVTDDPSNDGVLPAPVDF
Put plainly: Fluorescence Cell-Free Homogeneous Dose Retest to Identify Inhibitors of RecA-Intein Splicing Activity. [Related pubchem assays (depositor defined):AID2097, AID2223, AID489010, AID492950]. It is filed as functional.

Test [4] has as its system BJ. Briefly: BJ-TERT-LT-ST fibroblast viability loss – cell-based, RAS-independent, luminescence, dose response (AID 1935).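 Note: BJ fibroblasts immortalized with TERT plus LT and ST oncogenes.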 It is filed as functional. Particulars: Homo sapiens.
Test [5] can be described thus: DRD fibroblast viability loss – cell-based, non-viral oncogenic, luminescence, dose response (AID 1934). Type of test: functional. The note with it: Homo sapiens.
Test [6] deals with BJ. Put plainly: BJ-TERT fibroblast viability loss – cell-based, RAS-independent, luminescence, dose response (AID 1933). It is filed as functional. Particulars: Homo sapiens.
The test system of test [7] is BJ. Briefly: cells. Particulars: Homo sapiens. Type of test: functional, cell-based.
A further test has as its target Troponin, cardiac muscle (Homo sapiens, UniProt P19429+P45379+P63316). Briefly: Fluorescence-based biochemical high throughput dose response assay for activators of the calcium sensitivity of cardiac Regulated Thin Filaments (RTF). [Related pubchem assays (depositor defined):AID493008, AID493018, AID504382, AID504383]. It is filed as protein-complex assay.
Test [8] deals with Glyceraldehyde-3-phosphate dehydrogenase (Homo sapiens, UniProt P04406).
Test [9] addresses T3, Alkaline phosphatase, tissue-nonspecific isozyme (Homo sapiens, UniProt P05186).
T3 sequence (P05186 whole entry): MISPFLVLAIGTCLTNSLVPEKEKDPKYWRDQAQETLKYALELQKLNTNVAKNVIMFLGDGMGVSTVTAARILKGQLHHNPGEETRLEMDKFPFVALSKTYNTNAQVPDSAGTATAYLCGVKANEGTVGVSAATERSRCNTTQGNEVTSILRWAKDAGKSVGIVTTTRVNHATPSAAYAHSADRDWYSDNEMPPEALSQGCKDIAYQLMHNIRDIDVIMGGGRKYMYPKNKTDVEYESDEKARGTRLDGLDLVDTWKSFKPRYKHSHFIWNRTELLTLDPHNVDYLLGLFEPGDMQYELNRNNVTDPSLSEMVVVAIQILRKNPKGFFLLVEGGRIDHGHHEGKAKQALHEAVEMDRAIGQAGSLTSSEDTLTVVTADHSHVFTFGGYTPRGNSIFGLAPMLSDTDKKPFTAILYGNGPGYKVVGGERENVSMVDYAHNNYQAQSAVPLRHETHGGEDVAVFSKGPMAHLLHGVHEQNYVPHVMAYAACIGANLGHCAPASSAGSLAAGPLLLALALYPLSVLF
Briefly: potency against alkaline phosphatase TNAP – biochemical, luminescent, dose response, SAR follow-up (AID 1056).

The subject of a further test is INS1. Briefly: INS-1E survival protection against cytokine death – cell-based, luminescence, retest, dose response (AID 449756).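 Note: cell death triggered by IL-1 beta plus TNF-alpha plus IFN-gamma mixture; protective hits raise ATP signal compared with cytokine alone wells.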 Type of test: functional. Particulars: Rattus norvegicus.
The target in test [10] is T4, Type-1 angiotensin II receptor (Homo sapiens, UniProt P30556).
T4 sequence (P30556 whole entry): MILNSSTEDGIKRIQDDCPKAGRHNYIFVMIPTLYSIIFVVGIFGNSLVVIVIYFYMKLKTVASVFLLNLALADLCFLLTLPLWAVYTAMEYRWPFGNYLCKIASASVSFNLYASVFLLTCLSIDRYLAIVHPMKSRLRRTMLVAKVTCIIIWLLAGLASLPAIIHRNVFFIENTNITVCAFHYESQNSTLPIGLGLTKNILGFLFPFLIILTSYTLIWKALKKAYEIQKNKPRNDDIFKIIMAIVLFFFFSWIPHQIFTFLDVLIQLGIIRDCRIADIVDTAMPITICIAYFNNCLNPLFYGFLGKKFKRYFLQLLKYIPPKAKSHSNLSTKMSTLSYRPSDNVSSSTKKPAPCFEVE
Put plainly: agonist activity at AGTR1 – cell-based, uHTS hits, selectivity assay for APJ receptor agonist project, dose response (AID 488865).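 Note: beta-arrestin recruitment to AT1 measured by enzyme fragment complementation luminescence.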 Type of test: functional.

In test [11] the target is T5, COUP transcription factor 2 (Homo sapiens, UniProt P24468).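 Note: HEK293 cells transiently cotransfected with COUP-TFII expression vector and reporter; luciferase reporter luminescence driven by COUP-TFII from the pX2-168 reporter plasmid.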
T5 sequence (P24468 whole entry): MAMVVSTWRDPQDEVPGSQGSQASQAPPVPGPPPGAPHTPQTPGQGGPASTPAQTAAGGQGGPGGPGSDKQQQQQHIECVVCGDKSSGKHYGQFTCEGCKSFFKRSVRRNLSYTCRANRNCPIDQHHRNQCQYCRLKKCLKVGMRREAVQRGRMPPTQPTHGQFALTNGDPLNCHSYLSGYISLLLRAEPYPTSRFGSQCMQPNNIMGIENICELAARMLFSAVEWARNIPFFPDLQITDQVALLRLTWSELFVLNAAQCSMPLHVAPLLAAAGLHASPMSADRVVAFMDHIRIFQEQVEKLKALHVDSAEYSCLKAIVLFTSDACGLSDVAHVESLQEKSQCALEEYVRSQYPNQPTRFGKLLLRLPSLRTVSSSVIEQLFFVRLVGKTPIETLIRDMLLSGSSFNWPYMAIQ
Briefly: Luminescence-based cell-based high throughput dose response assay to identify inhibitors of COUP-TFII (NR2F2). It is filed as functional.

Test [12] in a line: Counterscreen for activators of the function of SWI/SNF related, matrix associated, actin dependent regulator of chromatin, subfamily a, member 2 (SMARCA2, BRM): Luminescence-based cell-based high throughput dose response assay to identify non-selective compounds using the VP16 reporter assay. It is filed as functional.
Another test addresses T6, Coagulation factor XII (Homo sapiens, UniProt P00748).
T6 sequence (P00748 whole entry): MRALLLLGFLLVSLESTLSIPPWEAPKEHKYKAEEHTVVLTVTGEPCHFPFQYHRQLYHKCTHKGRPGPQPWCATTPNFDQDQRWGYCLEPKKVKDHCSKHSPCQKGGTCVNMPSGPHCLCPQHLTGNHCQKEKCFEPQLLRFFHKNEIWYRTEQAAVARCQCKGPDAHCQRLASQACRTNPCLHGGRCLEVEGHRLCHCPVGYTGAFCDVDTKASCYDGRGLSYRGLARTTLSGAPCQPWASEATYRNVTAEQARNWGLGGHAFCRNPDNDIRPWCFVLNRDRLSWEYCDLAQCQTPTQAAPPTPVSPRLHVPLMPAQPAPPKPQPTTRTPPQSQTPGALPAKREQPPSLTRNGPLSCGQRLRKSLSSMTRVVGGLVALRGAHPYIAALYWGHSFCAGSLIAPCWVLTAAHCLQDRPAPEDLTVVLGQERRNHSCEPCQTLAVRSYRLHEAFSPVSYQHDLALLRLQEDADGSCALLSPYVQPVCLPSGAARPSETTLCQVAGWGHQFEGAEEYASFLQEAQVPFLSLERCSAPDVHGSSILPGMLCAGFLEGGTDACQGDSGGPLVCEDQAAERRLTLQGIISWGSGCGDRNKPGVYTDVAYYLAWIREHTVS
It is filed as functional.

Test [13] addresses SWI/SNF-related matrix-associated actin-dependent regulator of chromatin subfamily A member 2 (Homo sapiens, UniProt P51531). Briefly: Luminescence-based cell-based high throughput dose response assay to identify activators of the function of SWI/SNF related, matrix associated, actin dependent regulator of chromatin, subfamily a, member 2 (SMARCA2, BRM). It is filed as functional.

Calls of active or inactive are those of the source.
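Throughout, for CC50: cells exposed to compound for 72 hours before luminescence readout.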

Consider `CC(=O)n1cc(N(C(=O)CCl)c2ccccc2)c2ccccc21`, for which the AC50 is 1.34 µM (active) at Paired box protein Pax-8, 2.3 µM (active) in [1] and 4.84 µM (active) in test [2]. Also, in test [3], the CC50 was 1.16 µM (active). The 50% effective concentration (EC50) on Protein RecA was 0.347 µM (active); in the test with BJ [4], 5.99 µM (active); in test [5], 0.912 µM (active); with BJ [6], 0.654 µM (inconclusive); with BJ [7] it was 1.51 µM (inconclusive).

Take `O=C(Nc1ccc(C(=O)N2CCOCC2)cc1)Nc1cccc(Cl)c1`: the EC50 at Troponin, cardiac muscle was > 71.5 µM (inactive).

Regarding `COc1ccc(S(=O)(=O)Nc2ccc3ccccc3c2)c(OC)c1`, the half-maximal inhibitory concentration (IC50) in test [8] was > 10 µM (inconclusive); in test [9], > 10 µM (inactive).

With `CC(C)(C)OC(=O)NCCCCCc1cn([C@@H](CO)C(=O)NCCCCCCCCCCC(=O)N2CCN(C(=O)OC(C)(C)C)CC2)nn1`, the half-maximal activity concentration (AC50) in the test with INS1 was 5.45 µM (active). Besides, the EC50 in test [10] is > 100 µM (inactive). In addition, the IC50 in [11] was 3.28 µM (active).

For `CC1CCN(S(=O)(=O)c2ccc3nc(-c4ccccn4)cc(C(=O)NCCN(C)Cc4ccccc4)c3c2)CC1`, the figures for the EC50 in [12], in [10] and in test [13] were > 91.2 µM (inactive), > 100 µM (inactive) and > 91.2 µM (inactive), respectively. In addition, on Coagulation factor XII, the IC50 is > 50 µM (inactive).

For the compound `CCc1ccc(C(=O)NNC(=O)c2cccc(N3C(=O)CCC3=O)c2)cc1`, the EC50 at Troponin, cardiac muscle was > 71.5 µM (inactive).
